Results as given in US20240140957A1, “BRIDGED COMPOUNDS AS KRAS G12D INHIBITOR AND DEGRADER AND THE USE THEREOF” (BeiGene Switzerland GmbH, priority 2021, published 2024).

Molecular target: GDP-loaded KRAS G12D (Homo sapiens, UniProt P01116, G12D)
Assay: KRAS G12D Probe Displacement Assay
Assay type: binding
Details: KRAS G12D 0.5 nM, biotinylated probe 2 4 nM; Table 6 letters; read-out: KRAS G12D Probe Displacement Assay IC50 (class)

GDP-loaded KRAS G12D, sequence (P01116 1-188 isoform P01116-2 G12D): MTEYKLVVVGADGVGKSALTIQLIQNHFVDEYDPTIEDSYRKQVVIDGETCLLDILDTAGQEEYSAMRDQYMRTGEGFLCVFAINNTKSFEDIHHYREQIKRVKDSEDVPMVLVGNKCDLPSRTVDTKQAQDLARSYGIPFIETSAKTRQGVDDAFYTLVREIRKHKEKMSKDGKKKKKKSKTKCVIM

SMILES	IC50 [nM]
Nc1nc2c(-c3c(C(F)(F)F)cc4c(N5[C@@H]6CC[C@H]5C(NCCC(F)F)C6)nc(OC[C@@]56CCCN5C[C@H](F)C6)nc4c3F)ccc(F)c2s1 (stereo partly drawn) [Example E95, 4-(4-((1S,4R)-2-((3,3-difluoropropyl)amino)-7-azabicyclo [2.2.1]heptan-7-yl)-8-fluoro-2-(((2R,7As)-2-fluorotetrahydro-1H-pyrrolizin-7a(5H)-yl)methoxy)-6-(trifluoromethyl)quinazolin-7-yl)-7-fluorobenzo[d]thiazol-2-amine]	< 50
Cc1cc(N)nc(-c2c(Cl)cc3c(N4C5CCC4CNC5)nc(OC[C@@]45CCCN4C[C@H](F)C5)nc3c2F)c1C(F)(F)F [Example E96]	< 50
COCCCNC1C[C@H]2CC[C@@H]1N2c1nc(OC[C@@]23CCCN2C[C@H](F)C3)nc2c(F)c(-c3ccc(F)c4sc(N)nc34)c(C(F)(F)F)cc12 (stereo partly drawn) [Example E97, 7-fluoro-4-(8-fluoro-2-(((2R,7aS)-2-fluorotetrahydro-1H-pyrrolizin-7a(5H)-yl)methoxy)-4-((1S,4R)-2-((3-methoxypropyl)amino)-7-azabicyclo [2.2.1]heptan-7-yl)-6-(trifluoromethyl)quinazolin-7-yl) benzo[d]thiazol-2-amine]	< 50
Nc1nc2c(-c3c(C(F)(F)F)cc4c(N5C6CNCC5COC6)nc(OC[C@@]56CCCN5C[C@H](F)C6)nc4c3F)ccc(F)c2s1 [Example E98]	< 50
CN(C)C(=O)CCNC1C[C@H]2CC[C@@H]1N2c1nc(OC[C@@]23CCCN2C[C@H](F)C3)nc2c(F)c(-c3ccc(F)c4sc(N)nc34)c(C(F)(F)F)cc12 (stereo partly drawn) [Example E99, 3-(((1S,4R)-7-(7-(2-amino-7-fluorobenzo[d]thiazol-4-yl)-8-fluoro-2-(((2R,7aS)-2-fluorotetrahydro-1H-pyrrolizin-7a(5H)-yl)methoxy)-6-(trifluoromethyl)quinazolin-4-yl)-7-azabicyclo [2.2.1]heptan-2-yl)amino)-N,N-dimethyl propanamide]	< 50
Cc1cc(N)nc(-c2c(C(F)F)cc3c(N4CC5CCC(C4)N5)nc(OC[C@@]45CCCN4C[C@H](F)C5)nc3c2F)c1C(F)(F)F [Example E100, 6-(4-(3,8-diazabicyclo[3.2.1]octan-3-yl)-6-(difluoromethyl)-8-fluoro-2-(((2R,7aS)-2-fluorotetrahydro-1H-pyrrolizin-7a(5H)-yl)methoxy)quinazolin-7-yl)-4-methyl-5-(trifluoromethyl)pyridin-2-amine]	< 50
Nc1nc2c(-c3c(C(F)(F)F)cc4c(N5C6CCC5CNC6)nc(OC[C@@]56CCCN5C[C@H](F)C6)nc4c3Cl)ccc(F)c2s1 [Example E101, 4-(4-(3,8-diazabicyclo[3.2.1]octan-8-yl)-8-chloro-2-(((2R,7aS)-2-fluorotetrahydro-1H-pyrrolizin-7a(5H)-yl)methoxy)-6-(trifluoromethyl)quinazolin-7-yl)-7-fluorobenzo[d]thiazol-2-amine]	< 50
Nc1cc(Cl)c(C(F)(F)F)c(-c2c(Cl)cc3c(N4C5CCC4CNC5)nc(OC[C@@]45CCCN4C[C@H](F)C5)nc3c2F)n1 [Example E102, 6-(4-(3,8-diazabicyclo[3.2.1]octan-8-yl)-6-chloro-8-fluoro-2-(((2R,7aS)-2-fluorotetrahydro-1H-pyrrolizin-7a(5H)-yl)methoxy)quinazolin-7-yl)-4-chloro-5-(trifluoromethyl)pyridin-2-amine]	< 50
Oc1cc(Cl)c(C(F)(F)F)c(-c2c(Cl)cc3c(N4CC5CCC(C4)N5)nc(OC[C@@]45CCCN4C[C@H](F)C5)nc3c2F)c1 [Example E105, 3-(4-(3,8-diazabicyclo[3.2.1]octan-3-yl)-6-chloro-8-fluoro-2-(((2R,7aS)-2-fluorotetrahydro-1H-pyrrolizin-7a(5H)-yl)methoxy)quinazolin-7-yl)-5-chloro-4-(trifluoromethyl)phenol]	< 50
Nc1cc(Cl)c(C(F)(F)F)c(-c2c(Cl)cc3c(N4C5CNCC4COC5)nc(OC[C@@]45CCCN4C[C@H](F)C5)nc3c2F)n1 [Example E107, 6-(4-(3-oxa-7,9-diazabicyclo[3.3.1]nonan-9-yl)-6-chloro-8-fluoro-2-(((2R,7aS)-2-fluorotetrahydro-1H-pyrrolizin-7a(5H)-yl)methoxy)quinazolin-7-yl)-4-chloro-5-(trifluoromethyl)pyridin-2-amine]	< 50
C#Cc1cc(N)nc(-c2c(Cl)cc3c(N4CC5CCC(C4)N5)nc(OC[C@@]45CCCN4C[C@H](F)C5)nc3c2F)c1C(F)(F)F [Example E108, 6-(4-(3,8-diazabicyclo[3.2.1]octan-3-yl)-6-chloro-8-fluoro-2-(((2R,7aS)-2-fluorotetrahydro-1H-pyrrolizin-7a(5H)-yl)methoxy)quinazolin-7-yl)-4-ethynyl-5-(trifluoromethyl)pyridin-2-aminp]	< 50
N#Cc1cc(N)nc(-c2c(Cl)cc3c(N4CC5CCC(C4)N5)nc(OC[C@@]45CCCN4C[C@H](F)C5)nc3c2F)c1C(F)(F)F [Example E109, 2-(4-(3,8-diazabicyclo[3.2.1]octan-3-yl)-6-chloro-8-fluoro-2-(((2R,7aS)-2-fluorotetrahydro-1H-pyrrolizin-7a(5H)-yl)methoxy)quinazolin-7-yl)-6-amino-3-(trifluoromethyl)isonicotinonitrile]	< 50
Oc1cc(F)c(C(F)(F)F)c(-c2c(F)cc3c(N4CC5CCC(C4)N5)nc(OC[C@@]45CCCN4C[C@H](F)C5)nc3c2F)c1 [Example E110, 3-(4-(3,8-diazabicyclo[3.2.1]octan-3-yl)-6,8-difluoro-2-(((2R,7aS)-2-fluorotetrahydro-1H-pyrrolizin-7a(5H)-yl)methoxy)quinazolin-7-yl)-5-fluoro-4-(trifluoromethyl)phenol]	< 50
CN1C[C@H](F)C[C@H]1COc1nc(N2CC3CCC(C2)N3)c2cc(C(F)(F)F)c(-c3ccc(F)c4sc(N)c(C#N)c34)c(F)c2n1 [Example E111, 4-(4-(3,8-diazabicyclo[3.2.1]octan-3-yl)-8-fluoro-2-(((2S,4R)-4-fluoro-1-methylpyrrolidin-2-yl)methoxy)-6-(trifluoromethyl)quinazolin-7-yl)-2-amino-7-fluoro benzo[b]thiophene-3-carbonitrile]	< 50
Cc1nc(N)nc(-c2c(Cl)cc3c(N4CC5CCC(C4)N5)nc(OC[C@@]45CCCN4C[C@H](F)C5)nc3c2F)c1C(F)(F)F [Example E112, 4-(4-(3,8-diazabicyclo[3.2.1]octan-3-yl)-6-chloro-8-fluoro-2-(((2R,7aS)-2-fluorotetrahydro-1H-pyrrolizin-7a(5H)-yl)methoxy)quinazolin-7-yl)-6-methyl-5-(trifluoromethyl)pyrimidin-2-amine]	< 50

Results, then the compound that gave them:

IC50 [nM]	SMILES
< 50	Nc1nc2c(-c3c(C(F)(F)F)cc4c(N5CC6CCCC(C5)N6)nc(OC[C@@]56CCCN5C[C@H](F)C6)nc4c3F)ccc(F)c2s1 [Example E90, 4-(4-(3,9-diazabicyclo[3.3.1]nonan-3-yl)-8-fluoro-2-(((2R,7aS)-2-fluorotetrahydro-1H-pyrrolizin-7a(5H)-yl)methoxy)-6-(trifluoromethyl)quinazolin-7-yl)-7-fluorobenzo[d]thiazol-2-amine]
< 50	Nc1nc2c(-c3c(C4CC4(F)F)cc4c(N5CC6CCC(C5)N6)nc(OC[C@@]56CCCN5C[C@H](F)C6)nc4c3F)ccc(F)c2s1 (stereo partly shown) [Example E91, 4-(4-(3,8-diazabicyclo[3.2.1]octan-3-yl)-6-(2,2-difluorocyclopropyl)-8-fluoro-2-((2-fluorotetrahydro-1H-pyrrolizin-7a(5H)-yl)methoxy)quinazolin-7-yl)-7-fluorobenzo[d]thiazol-2-amine]
< 50	Cc1cc(N)nc(-c2c(SC(F)(F)F)cc3c(N4CC5CCC(C4)N5)nc(OC[C@@]45CCCN4C[C@H](F)C5)nc3c2F)c1C(F)(F)F [Example E92, 6-(4-(3,8-diazabicyclo[3.2.1]octan-3-yl)-8-fluoro-2-(((2R,7aS)-2-fluorotetrahydro-1H-pyrrolizin-7a(5H)-yl)methoxy)-6-((trifluoromethyl)thio)quinazolin-7-yl)-4-methyl-5-(trifluoromethyl)pyridin-2-amine]
< 50	Nc1nc2c(-c3c(SC(F)(F)F)cc4c(N5CC6CCC(C5)N6)nc(OC[C@@]56CCCN5C[C@H](F)C6)nc4c3F)ccc(F)c2s1 [Example E94, 4-(4-(3,8-diazabicyclo[3.2.1]octan-3-yl)-8-fluoro-2-(((2R,7aS)-2-fluorotetrahydro-1H-pyrrolizin-7a(5H)-yl)methoxy)-6-((trifluoromethyl)thio)quinazolin-7-yl)-7-fluorobenzo[d]thiazol-2-amine]
< 50	CN1C[C@H](F)C[C@]1(C)COc1nc(N2CC3CCC(C2)N3)c2cc(C(F)(F)F)c(-c3ccc(F)c4sc(N)nc34)c(F)c2n1 [Example E103, 4-(4-(3,8-diazabicyclo[3.2.1]octan-3-yl)-8-fluoro-2-(((2R,4R)-4-fluoro-1,2-dimethylpyrrolidin-2-yl)methoxy)-6-(trifluoromethyl)quinazolin-7-yl)-7-fluorobenzo [d]thiazol-2-amine]
< 50	N#Cc1c(N)sc2c(F)ccc(-c3c(C(F)(F)F)cc4c(N5CC6CCC(C5)N6)nc(OC[C@@]56CCCN5C[C@H](F)C6)nc4c3F)c12 [Example E104, 4-(4-(3,8-diazabicyclo[3.2.1]octan-3-yl)-8-fluoro-2-(((2R,7aS)-2-fluorotetrahydro-1H-pyrrolizin-7a(5H)-yl)methoxy)-6-(trifluoromethyl)quinazolin-7-yl)-2-amino-7-fluorobenzo[b]thiophene-3-carbonitrile]
< 50	N#Cc1c(N)sc2c(F)ccc(-c3c(Cl)cc4c(N5CC6CCC(C5)N6)nc(OC[C@@]56CCCN5C[C@H](F)C6)nc4c3F)c12 [Example E106, 4-(4-(3,8-diazabicyclo[3.2.1]octan-3-yl)-6-chloro-8-fluoro-2-(((2R,7aS)-2-fluorotetrahydro-1H-pyrrolizin-7a(5H)-yl)methoxy)quinazolin-7-yl)-2-amino-7-fluorobenzo[b]thiophene-3-carbonitrile]
